Laboratory results reported in patent publication US20050261162A1, “Pharmaceutical composition for preventing and treating cancer and treating an inflammation” (priority 2001, published 2005).

Tests used:
[1] = test system: Salmonella typhimurium TA102 strain; assay: Antimutagenic effect on mutagenesis induced by reactive oxygen species (His+ revertant colonies); assay type: cell-based; conditions: compared with curcumin as positive control
Description: The antimutagenic effect of xanthorrhizol was examined in Salmonella typhimurium TA102 strain including mutagenesis with reactive oxygen species (Levin, D. E., et al., Proc. Natl. Acad. Sci. U. S. A., 79;7445-7449, 1982).
Salmonella typhimurium TA102 strain was cultured in Oxoid nutrient broth medium for 11 hours. 100 μl of above-cultured medium was added to 600 μl of the reaction mixture containing tert-butylhydroperoxide (100 μg/plate) or hydrogen peroxide (50 μg/plate) with or without xanthorrhizol and incubated for 30 minutes at 37° C. Curcumin was added instead of xanthorrhizol in positive control. The concentration of xanthorrhizol or curcumin was 0, 10, 20, 40, 60 nmol/plate and 2, 4, 8, 10, 20, 50 nmol/plate respectively in experiment to examine the inhibitory effect of xanthorrhizol against tert-butylhydroperoxide and hydrogen peroxide-induced mutagenesis. The reaction mixture was transferred to 2 ml of top agar solution containing 0.5 mM of histidine and biotin and was homogeneously mixed. It was poured to minimal glucose plate. The plates were incubated for 48 hours at 37° C. and the number of His+ revertant colonies counted.

[2] = test system: skin tumor formation induced by DMBA and TPA; assay: Two-stage mouse skin carcinogenesis model (DMBA/TPA); assay type: in vivo, ICR mice
Text: The chemoprotective effect of xanthorrhizol and the methanolic extract of Curcuma xanthorrhiza Roxb. against tumor formation was investigated in multistage mouse carcinogenesis induced by tumor initiator (DMBA) and tumor promoter (TPA).
To evaluate the inhibitory effect of xanthorrhizol and the methanolic extract of Curcuma xanthoffhiza Roxb. against tumor formation, 30 mice (6 weeks age, female) per an experimental group was used. The dorsal region of ICR mice was shaved with an electric clipper. After a topical application of 0.2 μmol DMBA in 0.2 ml acetone, mice were treated topically with xanthorrhizol or the methanolic extract of Curcuma xanthorrhiza 30 min prior to each topical application of 10 nmol TPA in 0.2 ml acetone which was continued three times weekly for 19 weeks. The negative control was treated with only 0.2 ml acetone. Tumors were counted and recorded biweekly. The results were expressed as the average number of tumors per mouse (tumor multiplicity) and the percentage of tumor-bearing mice (tumor incidence) and are shown at FIG. 3 and FIG. 4. […] FIG. 4 is a photograph representing the inhibitory effect of xanthorrhizol against tumor formation at 19 weeks.

IκBα = assay: Inhibition of IκB degradation in mouse skin treated with TPA (western blotting); assay type: in vivo; conditions: mouse skin cytoplasmic extract, topical pretreatment before TPA
Description: To examine the effect of xanthorrhizol on IκB, the level of IκB was measured in mouse skin. Cytoplasmic extract was prepared as follows. The mouse skin tissue obtained by the same method of embodiment 4 was homogenized in hypotonic buffer solution [10 mM HEPES, pH 7.8, 10 mM KCl, 2 mM MgCl2, 1 mM DTT, 0.1 mM EDTA, 0.1 mM phenylmethylsulfonyl fluoride (PMSF)]. To the homogenates was added 125 μl of 10% Nondiet P-40 solution and the mixture was then centrifuged for 30 sec. The supernatant (cytoplasmic extract) was electrophoresized on the 12% SDS-polyacrylamide gel. Blot was transferred from SDS-polyacrylamide gel to PVDF membrane, blocked with 5% fat-free dry milk-PBST buffer for 2 hr at room temperature and then washed in PBST buffer. Membrane was incubated for 2 hr at room temperature with rabbit IκBα polyclonal antibody (Santa Cruz Product, Santa Cruz, Calif., USA). Blot was rinsed with PBST, incubated with anti-rabbit horseradish peroxidase-conjugated secondary antibody (Santa Crus product, Santa Cruz, Calif., USA) and again washed 3 times in PBST buffer for 5 min. Transferred protein was visualized with an ECL detection kit.

HL-60 cells [3] = assay: DNA fragmentation in HL-60 cells (agarose gel electrophoresis); assay type: cell-based, Human; conditions: 80 μM, 24 hr
Description: HL-60 cells were cultured in 10% FBS-RPMI 1640 medium of 100 mm Petri dish for 2 days. The cells were treated with 0,10, 40, 80 μM of xanthorrhizol to investigate the effect of xanthorrhizol on DNA fragmentation, a biochemical marker of apoptosis. After 24 hr, the cells were collected, incubated with 500 μl of lysis buffer (1 % Triton-X 100, 50 mM Tris-HCl pH 7.4, 20 mM EDTA) for 1 hr on ice, and centrifuged. To the supernatant was added 100 μl of 1% SDS, 10 μl f TE/RNase(10 mg/ml), 50 µl of proteinase K (1 mg/ml) and the mixture was incubated at 37° C. at least for 4 hr. DNA was extracted with phenol-chloroform-isoamylalcohol (25:24:1, v/v) and precipitated at −70° C. for 1 hr after addition of 2.5 volumes of cold ethanol. DNA fragments were resolved by 1.5% agarose gel electrophoresis and visualized by staining with ethidium bromide.

HL-60 cells [4] = assay: Flow cytometric cell cycle analysis of HL-60 cells (sub-G1 phase); assay type: cell-based, Human; conditions: 24 hours, control 20%
Description: The effect of xanthorrhizol on cell cycle was examined by flow cytometric analysis. HL-60 cells were cultured in serum-free RPMI 1640 medium for 48 hr to stop cell cycle at GO phase. The medium was exchanged to 10% FBS-RPMI 1640 media with 0, 20, 60 μM of xanthorrhizol, respectively. 24 hours later, the cells obtained after centrifugation were fixed in 70% ethanol at −20° C. overnight. The cells were washed twice again with PBS, and incubated with 100 U/ml of Rnase at 37° C. for 1 hr. The cell pellet was resuspended in propidium iodide solution after washing twice with PBS. The cells were analyzed by flow cytometry and the result was represented at FIG. 11.

procaspase-3 = assay: Activation of procaspase-3 in HL-60 cells (western blotting); assay type: cell-based, Human; conditions: 40 μM
Description: To investigate whether xanthorrhizol also induces the activation of procaspase-3, HL-60 cells were treated with 0, 10, 40, 80 μM of xanthorrhizol for 24 hr and was also treated with 80 μM of xanthorrhizol for 0, 2, 4, 6, 9 and 12 hr. The cells were harvested, suspended in 400 μl of lysis buffer described in embodiment 4, incubated 4° C. for 40 min and centrifuged. The supernatant was electrophoresized on the 12% SDS-polyacrylamide gel. Blot was transferred from SDS-polyacrylamide gel to PVDF membrane, blocked with 5% fat-free dry milk-PBST buffer for 2 hr at room temperature and then washed in PBST buffer. Membrane was incubated for 2 hr at room temperature with mouse procaspase-3 monoclonal antibody (Transduction Laboratories, Lexington, Ky., USA). Blot was rinsed with PBST, incubated with mouse horseradish peroxidase-conjugated secondary antibody and again washed 3 times in PBST buffer for 5 min. Transferred protein was visualized with an ECL detection kit.

**Q.** For CC(C)=CCC[C@@H](C)c1ccc(C)c(O)c1 [xanthorrhizol], which “inhibitory effect against mutagenesis induced by hydrogen peroxide” value ([1]; hydrogen peroxide 50 μg/plate) is on record?
**A.** Its value is “more excellent inhibitory effect”.

**Q.** And the “inhibitory effect against mutagenesis induced by tert-butylhydroperoxide” value ([1]; tert-butylhydroperoxide 100 μg/plate)?
**A.** Its value is “more excellent inhibitory effect”.

**Q.** What about the “average number of skin tumors per mouse (tumor multiplicity)” value ([2]; 6 μmol topical, three times per week for 19 weeks, DMBA/TPA control 15.5) of the same compound?
**A.** Its value is 4.0 skin tumors per mouse.

**Q.** And the “percentage of tumor-bearing mice (tumor incidence)” value ([2]; 6 μmol topical, three times per week for 19 weeks, all DMBA/TPA control mice had tumors)?
**A.** The value was 57%.

**Q.** And the tumor formation ([2]; topical application 30 min prior to each TPA, three times weekly for 19 weeks)?
**A.** Its tumor formation is “inhibits tumor formation dose-dependently”.

**Q.** What about the “degradation of IκBα induced by TPA” value (IκBα) of the same compound?
**A.** Its value is “inhibited by xanthorrhizol in a dose dependent manner”.

**Q.** What about the DNA fragmentation (HL-60 cells [3]) of the same compound?
**A.** The DNA fragmentation was “induced”.

**Q.** What about the “proportion of cells in sub-G1 phase (apoptosis peak)” value (HL-60 cells [4]; 20 μM) of the same compound?
**A.** The value was 36%.

**Q.** And the “proportion of cells in sub-G1 phase (apoptosis peak)” value (HL-60 cells [4]; 60 μM)?
**A.** Its value is 76%.

**Q.** And the “activation of procaspase-3” value (procaspase-3)?
**A.** The value was “activated the procaspase-3 to caspase-3”.
